Experiments:
[1] = test system: ulcerative colitis patients in an active stage; experiment: Clinical study, 960 mg orally 3 times a day for 8 weeks: subscore for bloody stool of Mayo score, bloody-stool disappearance rate; assay type: in vivo, human; set-up: Cases by subscore for bloody stool, figure in parentheses: unit not given here
Description: (§1) The compound of Example 1 or the compound of Comparative Example 1 was orally administered after meals 3 times a day. The number of the given tablets was 8 per administration (i.e., the amount of the compound (1) of Example 1 administered was 960 mg per administration). The administration period was 8 weeks. The compounds were administered until the timing after the breakfast on the day before the assessment day at Week 8.
(2) Bloody Stool [Investigation Timings: Weeks 0, 2, 4, and 8 (or Discontinuation Time)]
Based on the contents described in the symptom-recording diaries, the investigators or sub-investigators investigated the states of bloody stool in 3 days immediately before each assessment day. Note that when the endoscopic examination on the large intestine was conducted, the investigation days were set to be the closest three days excluding the day of the endoscopic examination on the large intestine, the following day, and if a pre-treatment was performed for the endoscopic examination on the large intestine, the pre-treatment day.
The bloody stool state on the most severe day among the investigated three days was scored according to the following criteria.

[2] = test system: ulcerative colitis patients in an active stage; experiment: Clinical study, 960 mg orally 3 times a day for 8 weeks: subscore for mucosal finding (large intestine endoscopic examination), mucosal remission rate; assay type: in vivo, human; set-up: Cases by subscore for mucosal finding, figure in parentheses: unit not given here
Description: as §1
(3) Mucosal Finding (Large Intestine Endoscopic Examination) [Investigation Timings: Weeks 0 and 8 (or Discontinuation Time)]
The investigators or sub-investigators conducted the endoscopic examination on the large intestine, and checked the state of the large intestinal mucosa.
The endoscopic examination was conducted during a time from 7 days before Week 8 (or discontinuation time) until a medical interview at Week 8 (or discontinuation time). Note that the endoscopic examination on the large intestine at Week 8 (or discontinuation time) was conducted by the same physician at Week 0 when the situation allowed.
The assessment at the site served as the “subscore for mucosal finding” of the Mayo score. At Week 8 (or discontinuation time) also, the same site as that at Week 0 was assessed as the “subscore for mucosal finding” of the Mayo score.
A mucosal remission rate is a proportion of subjects each having a Mayo score with a subscore for mucosal finding of 1 point or less.

`COC(=O)[C@H](Cc1ccc(-n2c(=O)c3cc(N(C)C)ccc3n(C)c2=O)cc1)NC(=O)c1c(Cl)cccc1Cl` [Example 1, methyl(2S)-2-(2,6-dichlorobenzamide)-3-{4-[6-(dimethylamino)-1-methyl-2,4-dioxo-1,4-dihydroquinazolin-3(2H)-yl]phenyl}propanoate] was tested, and the “Cases by subscore for bloody stool, figure in parentheses” value ([1]; Week 0, score 1) was 45.1, the “Number of cases by subscore for bloody stool” value ([1]; Week 0, score 1) was 23 and the “Cases by subscore for bloody stool, figure in parentheses” value ([1]; Week 0, score 2) was 47.1. The “Number of cases by subscore for bloody stool” value ([1]; Week 0, score 2) was 24, the “Cases by subscore for bloody stool, figure in parentheses” value ([1]; Week 0, score 3) was 7.8 and the “Number of cases by subscore for bloody stool” value ([1]; Week 0, score 3) was 4. For the same compound, the “Cases by subscore for bloody stool, figure in parentheses” value ([1]; Week 2, score 0) was 9.8, the “Number of cases by subscore for bloody stool” value ([1]; Week 2, score 0) was 5 and the “Cases by subscore for bloody stool, figure in parentheses” value ([1]; Week 2, score 1) was 54.9. For the same compound, the “Number of cases by subscore for bloody stool” value ([1]; Week 2, score 1) was 28, the “Cases by subscore for bloody stool, figure in parentheses” value ([1]; Week 2, score 2) was 33.3 and the “Number of cases by subscore for bloody stool” value ([1]; Week 2, score 2) was 17. For the same compound, the “Cases by subscore for bloody stool, figure in parentheses” value ([1]; Week 2, score 3) was 2.0, the “Number of cases by subscore for bloody stool” value ([1]; Week 2, score 3) was 1 and the “Number of cases, cross tabulation of subscore for bloody stool” value (“Number … of subscore for bloody stool” below) ([1]; Week 2 score 0, Week 0 score 1) was 2. For the same compound, the “Number … of subscore for bloody stool” value ([1]; Week 2 score 0, Week 0 score 2) was 2, the “Number … of subscore for bloody stool” value ([1]; Week 2 score 0, Week 0 score 3) was 1 and the “Number … of subscore for bloody stool” value ([1]; Week 2 score 1, Week 0 score 1) was 18. The “Number … of subscore for bloody stool” value ([1]; Week 2 score 1, Week 0 score 2) was 8, the “Number … of subscore for bloody stool” value ([1]; Week 2 score 1, Week 0 score 3) was 2 and the “Number … of subscore for bloody stool” value ([1]; Week 2 score 2, Week 0 score 1) was 3. The “Number … of subscore for bloody stool” value ([1]; Week 2 score 2, Week 0 score 2) was 14, the “Number … of subscore for bloody stool” value ([1]; Week 2 score 2, Week 0 score 3) was 0 and the “Number … of subscore for bloody stool” value ([1]; Week 2 score 3, Week 0 score 1) was 0. For the same compound, the “Number … of subscore for bloody stool” value ([1]; Week 2 score 3, Week 0 score 2) was 0, the “Number … of subscore for bloody stool” value ([1]; Week 2 score 3, Week 0 score 3) was 1 and the “Cases by subscore for bloody stool, figure in parentheses” value ([1]; Week 4, score 0) was 35.3. For the same compound, the “Number of cases by subscore for bloody stool” value ([1]; Week 4, score 0) was 18, the “Cases by subscore for bloody stool, figure in parentheses” value ([1]; Week 4, score 1) was 43.1 and the “Number of cases by subscore for bloody stool” value ([1]; Week 4, score 1) was 22. For the same compound, the “Cases by subscore for bloody stool, figure in parentheses” value ([1]; Week 4, score 2) was 19.6, the “Number of cases by subscore for bloody stool” value ([1]; Week 4, score 2) was 10 and the “Cases by subscore for bloody stool, figure in parentheses” value ([1]; Week 4, score 3) was 2.0. For the same compound, the “Number of cases by subscore for bloody stool” value ([1]; Week 4, score 3) was 1, the “Number … of subscore for bloody stool” value ([1]; Week 4 score 0, Week 0 score 1) was 9 and the “Number … of subscore for bloody stool” value ([1]; Week 4 score 0, Week 0 score 2) was 8. For the same compound, the “Number … of subscore for bloody stool” value ([1]; Week 4 score 0, Week 0 score 3) was 1, the “Number … of subscore for bloody stool” value ([1]; Week 4 score 1, Week 0 score 1) was 12 and the “Number … of subscore for bloody stool” value ([1]; Week 4 score 1, Week 0 score 2) was 9. For the same compound, the “Number … of subscore for bloody stool” value ([1]; Week 4 score 1, Week 0 score 3) was 1, the “Number … of subscore for bloody stool” value ([1]; Week 4 score 2, Week 0 score 1) was 2 and the “Number … of subscore for bloody stool” value ([1]; Week 4 score 2, Week 0 score 2) was 7. The “Number … of subscore for bloody stool” value ([1]; Week 4 score 2, Week 0 score 3) was 1, the “Number … of subscore for bloody stool” value ([1]; Week 4 score 3, Week 0 score 1) was 0 and the “Number … of subscore for bloody stool” value ([1]; Week 4 score 3, Week 0 score 2) was 0. The “Number … of subscore for bloody stool” value ([1]; Week 4 score 3, Week 0 score 3) was 1, the “Difference in bloody-stool disappearance rates, Example 1 vs Comparative Example 1 (placebo)” value ([1]; Week 8) was 29.4% and the Bloody-stool disappearing cases ([1]; Week 8, 51 cases analyzed) was 25. The Bloody-stool disappearance rate ([1]; Week 8, all subjects) was 49.0%, the “Cases by subscore for bloody stool, figure in parentheses” value ([1]; Week 8, score 0) was 49.0 and the “Number of cases by subscore for bloody stool” value ([1]; Week 8, score 0) was 25. For the same compound, the “Cases by subscore for bloody stool, figure in parentheses” value ([1]; Week 8, score 1) was 37.3, the “Number of cases by subscore for bloody stool” value ([1]; Week 8, score 1) was 19 and the “Cases by subscore for bloody stool, figure in parentheses” value ([1]; Week 8, score 2) was 11.8. For the same compound, the “Number of cases by subscore for bloody stool” value ([1]; Week 8, score 2) was 6, the “Cases by subscore for bloody stool, figure in parentheses” value ([1]; Week 8, score 3) was 2.0 and the “Number of cases by subscore for bloody stool” value ([1]; Week 8, score 3) was 1. The “Number … of subscore for bloody stool” value ([1]; Week 8 score 0, Week 0 score 1) was 13, the “Number … of subscore for bloody stool” value ([1]; Week 8 score 0, Week 0 score 2) was 9 and the “Number … of subscore for bloody stool” value ([1]; Week 8 score 0, Week 0 score 3) was 3. The “Number … of subscore for bloody stool” value ([1]; Week 8 score 1, Week 0 score 1) was 8, the “Number … of subscore for bloody stool” value ([1]; Week 8 score 1, Week 0 score 2) was 11 and the “Number … of subscore for bloody stool” value ([1]; Week 8 score 1, Week 0 score 3) was 0. For the same compound, the “Number … of subscore for bloody stool” value ([1]; Week 8 score 2, Week 0 score 1) was 2, the “Number … of subscore for bloody stool” value ([1]; Week 8 score 2, Week 0 score 2) was 4 and the “Number … of subscore for bloody stool” value ([1]; Week 8 score 2, Week 0 score 3) was 0. For the same compound, the “Number … of subscore for bloody stool” value ([1]; Week 8 score 3, Week 0 score 1) was 0, the “Number … of subscore for bloody stool” value ([1]; Week 8 score 3, Week 0 score 2) was 0 and the “Number … of subscore for bloody stool” value ([1]; Week 8 score 3, Week 0 score 3) was 1. The “Cases by subscore for mucosal finding, figure in parentheses” value ([2]; Week 0, score 2) was 88.2, the “Number of cases by subscore for mucosal finding” value ([2]; Week 0, score 2) was 45 and the “Cases by subscore for mucosal finding, figure in parentheses” value ([2]; Week 0, score 3) was 11.8. The “Number of cases by subscore for mucosal finding” value ([2]; Week 0, score 3) was 6, the “Difference in mucosal remission rates, Example 1 vs Comparative Example 1 (placebo)” value ([2]; Week 8) was 29.4% and the Mucosal remission cases ([2]; Week 8, 51 cases analyzed) was 30. The Mucosal remission rate ([2]; Week 8, all subjects) was 58.8%, the “Cases by subscore for mucosal finding, figure in parentheses” value ([2]; Week 8, score 0) was 17.0 and the “Number of cases by subscore for mucosal finding” value ([2]; Week 8, score 0) was 8. For the same compound, the “Cases by subscore for mucosal finding, figure in parentheses” value ([2]; Week 8, score 1) was 46.8, the “Number of cases by subscore for mucosal finding” value ([2]; Week 8, score 1) was 22 and the “Cases by subscore for mucosal finding, figure in parentheses” value ([2]; Week 8, score 2) was 34.0. For the same compound, the “Number of cases by subscore for mucosal finding” value ([2]; Week 8, score 2) was 16, the “Cases by subscore for mucosal finding, figure in parentheses” value ([2]; Week 8, score 3) was 2.1 and the “Number of cases by subscore for mucosal finding” value ([2]; Week 8, score 3) was 1. The “Number of cases, cross tabulation of subscore for mucosal finding” value (“Number … of subscore for mucosal finding” for short) ([2]; Week 8 score 0, Week 0 score 2) was 7, the “Number … of subscore for mucosal finding” value ([2]; Week 8 score 0, Week 0 score 3) was 1 and the “Number … of subscore for mucosal finding” value ([2]; Week 8 score 1, Week 0 score 2) was 22. For the same compound, the “Number … of subscore for mucosal finding” value ([2]; Week 8 score 1, Week 0 score 3) was 0, the “Number … of subscore for mucosal finding” value ([2]; Week 8 score 2, Week 0 score 2) was 13 and the “Number … of subscore for mucosal finding” value ([2]; Week 8 score 2, Week 0 score 3) was 3. For the same compound, the “Number … of subscore for mucosal finding” value ([2]; Week 8 score 3, Week 0 score 2) was 0, the “Number … of subscore for mucosal finding” value ([2]; Week 8 score 3, Week 0 score 3) was 1 and the Mucosal remission rate ([2]; body weight 50 kg or more and disease period less than 5 years (16/22 cases)) was 72.7%.

Source: US10183022B2, “Pharmaceutical composition for treating ulcerative colitis” (EA Pharma Co., Ltd., priority 2014, dated 2019)
